Reference: patent US11684614B2, “Formulations of hydroxypyridonate actinide/lanthanide decorporation agents” (priority 2017, dated 2023)
“And” between values parts separate entries of the source, which are not always exact repeats. Equal values may be shown once.

Assay: Repeated-treatment efficacy for removing an intravenous dose of 238Pu (excretion, tissue retention, clinical observations), female and male arms
Type: in vivo, Swiss-Webster mice
Details: for tissue content of 238Pu compared to saline control group: all analyzed tissues, all dosing regimens; for % Recovered Dose - Feces per Day: group H
Protocol: The objective of this study was to characterize the efficacy of 3,4,3-L1(1,2-HOPO) at enhancing elimination from an internal plutonium burden in female and male Swiss-Webster mice administered a soluble citrate complex of ^238Pu and treated multiple times, starting at 24 hours after the exposure. Efficacy was evaluated by comparing the tissue contents, urinary and fecal excretions of ^238Pu in treated animals versus untreated animals.
The medical countermeasure 3,4,3-L1(1,2-HOPO) was administered parenterally (ip) or orally (po) via consecutive injections or gavages (six daily or twelve twice daily) starting at 24 hours post contamination at the following four selected doses: 30 μmol/kg ip, 150 μmol/kg po, 300 μmol/kg po, and 600 μmol/kg po (equivalent to respective approximate human doses range of […], using the accepted conversion system of mouse doses into human equivalent doses—HED—based on body surface area). Oral doses also included the permeability enhancer selected during formulation development work.
• Challenge isotope: ^238Pu • Challenge dose: 25 nCi (i.e., approximately 0.8 μCi/kg) • Route of contamination: Intravenous (iv) tail-vein • Route of treatment: Intraperitoneal Injection (ip) or Oral (po) • Frequency of treatment: Multiple (once- or twice-daily for 6 days) doses, starting 24 hr postcontamination • Treatment dose calculation: Dose calculations (mg/kg or μmol/kg) for the decorporation agent were based on the individual body weight measured after contamination. • Study Duration: 11 days, in-life
c. […] Test article and control dose formulations were prepared within 1 day of dose administration, by weighing out the appropriate amount of test article, dispersing in vehicle. For ip solutions, the test article was used alone, while for oral suspensions, a mixture of test article and excipient (90:10, w:w) was used. The pH was adjusted to 7.0-7.4 for ip administration and 5.0-5.5 for oral administration with sterile NaOH. Dose formulations were prepared at room temperature and filter-sterilized. • Storage: 2-8° C.; refrigerated; protected from light. • Characterization: The concentration of each test article formulation was verified by high-performance liquid chromatography-mass spectrometry. • Test Article Handling: Test, reference, and control article formulations were handled with the use of eye protection, gloves, and a protective laboratory coat. • Correct Dose Assurance: The test article was weighed with calibrated balances. The administration of each dose formulation was properly documented, and the amount administered to each animal recorded.
e. Experimental Procedures (In-Life Evaluations and Euthanasia) • Contamination: Single administration by intravenous (iv) tail-vein injection (0.2 mL injection volume) under isoflurane anesthesia. Three standard 0.2 mL injections were performed into polyethylene bottles and pre-loaded with aliquots of concentrated nitric acid on each injection day. Six female and six male mice were culled for necropsy 1 hr post-contamination and were used as standards. A11 standards were processed and counted together with the final samples to allow verification of the contamination dose. • Dose Administration: Single administration by intraperitoneal injection (ip) or oral gavage (po) under isoflurane anesthesia. • Mortality/Morbidity: Assessed at least once daily. • Clinical Observations: Recorded once daily (4 hr post-dose on day of treatment), or more often as clinical signs warranted. […]

[1] = female mice, 30 μmol/kg, IP, 11-day necropsy
[2] = female mice, 30 μmol/kg, IP, 11-day necropsy, over untreated control group
[3] = female mice, 30 μmol/kg, IP, 11-day necropsy, vs untreated control group
[4] = male animals, Day-11 necropsy, animal group H
[5] = male arm table, Day 11 necropsy, animal group H
[6] = male mice, 30 μmol/kg, IP, 11-day necropsy
[7] = male mice, 30 μmol/kg, IP, 11-day necropsy, over untreated control group
[8] = male mice, 30 μmol/kg, IP, 11-day necropsy, vs untreated control group

SMILES: O=C(O)CN(CCN(CC(=O)O)CC(=O)O)CCN(CC(=O)O)CC(=O)O [DTPA, diethylenetriaminepentaacetic acid, reference compound]
- 238Pu excretion path (female and male mice): through urine
- ^238Pu excretion, Total Excretion, Avg [1]: 72.13 percent recovered dose
- ^238Pu excretion, Total Feces, Avg [1]: 30.20 percent recovered dose
- ^238Pu excretion, Total Urine, Avg [1]: 41.93 percent recovered dose
- ^238Pu retention, GI Tract, Avg [1]: 0.54 percent recovered dose
- ^238Pu retention, Kidney, Avg [1]: 0.13 percent recovered dose
- ^238Pu retention, Liver, Avg [1]: 4.14 percent recovered dose
- ^238Pu retention, Soft Tissue, Avg [1]: 1.66 percent recovered dose
- ^238Pu retention, Total Body, Avg [1]: 27.87 percent recovered dose
- ^238Pu retention, Total Bone, Avg [1]: 21.40 percent recovered dose
- ^238Pu percent increase in excretion, Total Excretion [2]: 143.34%
- ^238Pu percent increase in excretion, Total Feces [2]: 106.02%
- ^238Pu percent increase in excretion, Total Urine [2]: 192.03%
- ^238Pu percent tissue reduction, GI Tract [3]: 59.99%
- ^238Pu percent tissue reduction, Kidney [3]: 51.24%
- ^238Pu percent tissue reduction, Liver [3]: 65.62%
- ^238Pu percent tissue reduction, Soft Tissue [3]: 41.56%
- ^238Pu percent tissue reduction, Total Body [3]: 43.90%
- ^238Pu percent tissue reduction, Total Bone [3]: 35.51%
- tissue content of 238Pu compared to saline control group (female): large reductions
- % Recovered Dose Combined Body [4]: 31.58% and 24.29% and 33.79% and 30.93% and 32.00% and 29.03% and 23.14% and 27.41%
- % Recovered Dose Combined Excreta [4]: 68.42% and 74.71% and 66.21% and 69.07% and 68.00% and 70.97% and 76.86% and 72.59%
- % Recovered Dose GI Tract [4]: 1.75% and 0.46% and 0.91% and 0.70% and 0.71% and 0.57% and 0.52% and 0.47%
- % Recovered Dose Kidney [4]: 0.14% and 0.28% and 0.20% and 0.21% and 0.11% and 0.15% and 0.17%
- % Recovered Dose Liver [4]: 5.98% and 3.55% and 5.50% and 4.81% and 4.85% and 4.26% and 4.33% and 4.96%
- % Recovered Dose Soft Tissue [4]: 2.40% and 1.47% and 2.34% and 2.95% and 2.10% and 1.91% and 1.81% and 1.44%
- % Recovered Dose Total Bone [4]: 21.31% and 18.54% and 24.85% and 22.27% and 24.22% and 22.15% and 16.34% and 20.37%
- % Recovered Dose Urine per Day, Day 2 [5]: 7.92% and 8.51% and 7.65% and 2.69% and 6.20% and 7.54% and 5.46% and 8.58%
- % Recovered Dose Urine per Day, Day 3 [5]: 3.90% and 4.79% and 4.05% and 2.57% and 3.66% and 4.86% and 4.80% and 5.85%
- % Recovered Dose Urine per Day, Day 4 [5]: 3.05% and 3.34% and 2.72% and 0.84% and 2.10% and 3.61% and 2.55% and 2.58%
- % Recovered Dose Urine per Day, Day 5 [5]: 1.94% and 1.91% and 2.47% and 1.16% and 1.62% and 3.01% and 2.10% and 2.23%
- % Recovered Dose Urine per Day, Day 6 [5]: 1.36% and 1.21% and 1.73% and 0.80% and 1.18% and 1.69% and 1.57% and 1.37%
- % Recovered Dose Urine per Day, Day 7 [5]: 1.74% and 1.68% and 1.50% and 1.67% and 1.63% and 1.84% and 1.87% and 1.77%
- % Recovered Dose Urine per Day, Day 8 [5]: 0.96% and 0.76% and 0.90% and 0.53% and 0.64% and 0.85% and 1.18% and 0.65%
- % Recovered Dose Urine per Day, Day 9 [5]: 0.92% and 0.50% and 1.01% and 0.62% and 0.49% and 0.72% and 0.87% and 0.69%
- % Recovered Dose Urine per Day, Day 10 [5]: 0.35% and 0.32% and 0.27% and 0.21% and 0.49% and 0.38%
- % Recovered Dose Urine per Day, Day 11 [5]: 0.20% and 0.84% and 0.25% and 0.28% and 0.33% and 0.44% and 0.55% and 0.31%
- % Recovered Dose - Feces per Day (male mice, feces day 2, Day 11 necropsy): 2.78% and 4.90% and 1.40% and 7.06% and 3.40% and 6.60% and 7.14% and 5.64%
- % Recovered Dose - Feces per Day (male mice, feces day 3, Day 11 necropsy): 3.63% and 6.69% and 4.80% and 10.31% and 4.70% and 6.91% and 8.25% and 7.45%
- % Recovered Dose - Feces per Day (male mice, feces day 4, Day 11 necropsy): 3.78% and 4.47% and 3.18% and 7.97% and 3.38% and 4.66% and 5.75% and 4.65%
- % Recovered Dose - Feces per Day (male mice, feces day 5, Day 11 necropsy): 1.51% and 1.78% and 1.71% and 3.62% and 1.81% and 1.45% and 2.38% and 1.92%
- % Recovered Dose - Feces per Day (male mice, feces day 6, Day 11 necropsy): 1.64% and 2.00% and 2.45% and 2.79% and 1.57% and 1.96% and 1.83% and 1.74%
- % Recovered Dose - Feces per Day (male mice, feces day 7, Day 11 necropsy): 1.05% and 1.04% and 1.03% and 2.05% and 1.28% and 0.78% and 1.36% and 3.81%
- % Recovered Dose - Feces per Day (male mice, feces day 8, Day 11 necropsy): 0.81% and 0.75% and 1.29% and 1.70% and 0.85% and 0.78% and 1.19% and 1.40%
- % Recovered Dose - Feces per Day (male mice, feces day 9, Day 11 necropsy): 0.43% and 0.51% and 0.65% and 1.29% and 0.58% and 0.39% and 0.64% and 0.87%
- % Recovered Dose - Feces per Day (male mice, feces day 10, Day 11 necropsy): 0.38% and 0.40% and 0.33% and 0.79% and 0.42% and 0.30% and 0.52% and 0.68%
- % Recovered Dose - Feces per Day (male mice, feces day 11, Day 11 necropsy): 0.37% and 0.35% and 0.40% and 0.78% and 0.36% and 0.30% and 0.52% and 0.77%
- ^238Pu excretion, Total Excretion, Avg [6]: 70.98 percent recovered dose
- ^238Pu excretion, Total Feces, Avg [6]: 35.89 percent recovered dose
- ^238Pu excretion, Total Urine, Avg [6]: 35.09 percent recovered dose
- ^238Pu retention, GI Tract, Avg [6]: 0.76 percent recovered dose
- ^238Pu retention, Kidney, Avg [6]: 0.17 percent recovered dose
- ^238Pu retention, Liver, Avg [6]: 4.78 percent recovered dose
- ^238Pu retention, Soft Tissue, Avg [6]: 2.05 percent recovered dose
- ^238Pu retention, Total Body, Avg [6]: 29.02 percent recovered dose
- ^238Pu retention, Total Bone, Avg [6]: 21.26 percent recovered dose
- 238Pu percent increase in excretion, Total Excretion [7]: 149.50%
- 238Pu percent increase in excretion, Total Feces [7]: 140.57%
- 238Pu percent increase in excretion, Total Urine [7]: 159.88%
- ^238Pu percent tissue reduction, GI Trace [8]: 61.32%
- ^238Pu percent tissue reduction, Kidney [8]: 47.89%
- ^238Pu percent tissue reduction, Liver [8]: 71.51%
- ^238Pu percent tissue reduction, Soft Tissue [8]: 42.09%
- ^238Pu percent tissue reduction, Total Body [8]: 44.74%
- ^238Pu percent tissue reduction, Total Bone [8]: 28.92%
- tissue content of 238Pu compared to saline control group (male): large reductions
